Assay results taken from PMC6467533 (Chembiochem : a European journal of chemical biology, 2018).
≈ marks a conversion by molar mass, not a printed value.

Legend:
Mtb = conditions: cited from earlier work
[1] = test system: M. smegmatis biofilm formation; conditions: cited from earlier work
Mtx TPP = Mtx TPP (Mycobacterium triplex, UniProt A0A024JUE5); test: biochemical; set-up: species or system M. triplex
Mtb TPP = Mtb TPP (Mycobacterium tuberculosis, UniProt P9WFZ5); format: biochemical
E. coli TPP = conditions: cited from earlier work
Mlt TPP = format: biochemical, M. lentiflavum
Ag85C = conditions: cited from earlier work
M. aurum = conditions: cited from earlier work

Mtx TPP, sequence (A0A024JUE5 1-354): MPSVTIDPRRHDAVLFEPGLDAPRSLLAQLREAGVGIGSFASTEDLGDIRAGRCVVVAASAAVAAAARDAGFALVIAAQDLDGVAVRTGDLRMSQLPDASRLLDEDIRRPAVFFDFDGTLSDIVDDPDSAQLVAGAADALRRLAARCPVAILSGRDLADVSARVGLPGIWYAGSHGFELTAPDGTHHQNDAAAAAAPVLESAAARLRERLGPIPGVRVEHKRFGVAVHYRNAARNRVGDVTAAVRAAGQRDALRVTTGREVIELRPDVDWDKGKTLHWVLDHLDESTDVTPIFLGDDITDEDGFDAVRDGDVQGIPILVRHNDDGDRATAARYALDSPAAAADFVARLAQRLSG
Mtb TPP, sequence (P9WFZ5 whole entry, looked up): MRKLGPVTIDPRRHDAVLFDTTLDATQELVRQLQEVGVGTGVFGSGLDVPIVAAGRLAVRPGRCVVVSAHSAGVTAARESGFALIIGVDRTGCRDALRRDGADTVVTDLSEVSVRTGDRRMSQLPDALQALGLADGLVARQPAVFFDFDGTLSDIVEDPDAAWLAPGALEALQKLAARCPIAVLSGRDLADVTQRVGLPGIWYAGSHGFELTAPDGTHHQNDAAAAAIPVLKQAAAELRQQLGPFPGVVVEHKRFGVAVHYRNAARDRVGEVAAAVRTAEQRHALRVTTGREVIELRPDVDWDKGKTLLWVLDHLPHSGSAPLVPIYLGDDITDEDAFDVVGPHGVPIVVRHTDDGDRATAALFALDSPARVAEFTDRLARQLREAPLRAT

OC[C@H]1O[C@H](O[C@H]2O[C@H](CBr)[C@@H](O)[C@H](O)[C@H]2O)[C@H](O)[C@@H](O)[C@@H]1O [6-bromo-6-deoxy-α,α’-trehalose]
MIC against Mtb (Mtb): 200 µg/mL (≈ 494 µM)

OCC1OC(OC2OC(CF)C(O)C(O)C2O)C(O)C(O)C1O (stereo not drawn) [6-fluoro-6-deoxy-α,α’-trehalose]
MIC against Mtb (Mtb): 200 µg/mL (≈ 581 µM) | MIC, M. smegmatis biofilm formation [1]: 50 to 100 µM

O=P(O)(O)C[C@H]1O[C@H](O[C@H]2O[C@H](CO)[C@@H](O)[C@H](O)[C@H]2O)[C@H](O)[C@@H](O)[C@@H]1O [TMP, 6-Deoxy-6-(phosphonic acid)-α,α’-trehalose]
IC50 (Mtx TPP): 288 ± 32 µM

O=P(O)(O)CC[C@H]1O[C@H](O[C@H]2O[C@H](CO)[C@@H](O)[C@H](O)[C@H]2O)[C@H](O)[C@@H](O)[C@@H]1O [TEP, 6-Deoxy-6-(methylenephosphonic acid)-α,α’-trehalose]
IC50 (Mtx TPP): 1960 ± 261 µM

OCC1=C[C@@H](N[C@H]2C[C@H](CO)[C@@H](O[C@H]3O[C@@H](CO)[C@H](O)[C@@H](O)[C@@H]3O)[C@H](O)[C@H]2O)[C@H](O)[C@@H](O)[C@@H]1O [Validamycin A]
IC50 against Mtx TPP (Mtx TPP): unexpectedly high | IC50 against Mtb TPP (Mtb TPP): unexpectedly high | inhibition of E. coli TPP (E. coli TPP): completely inhibit | IC50 against Mlt TPP (Mlt TPP): unexpectedly high

[N-]=[N+]=NC[C@H]1O[C@H](O[C@H]2O[C@H](CO)[C@@H](O)[C@H](O)[C@H]2O)[C@H](O)[C@@H](O)[C@@H]1O [6-azido-6-deoxy-α,α’-trehalose]
inhibition of Ag85C activity (Ag85C): inhibit Ag85C activity | MIC, growth of M. aurum (M. aurum): 200 µg/mL | MIC, M. smegmatis biofilm formation [1]: 50 to 100 µM

OC[C@H]1O[C@H](O[C@H]2O[C@H](CC3CO3)[C@@H](O)[C@H](O)[C@H]2O)[C@H](O)[C@@H](O)[C@@H]1O (stereo partly drawn) [Compound 7, 6-deoxy-6-oxiranyl-α,α’-trehalose]
inhibition of Mtx TPP (Mtx TPP): no inhibition | inhibition of Mtb TPP (Mtb TPP): no inhibition | inhibition of Mlt TPP (Mlt TPP): no inhibition

CC1OC(OC2OC(CO)C(O)C(O)C2O)C(O)C(O)C1O (stereo not drawn) [6-deoxy-α,α’-trehalose]
MIC, M. smegmatis biofilm formation [1]: 50 to 100 µM
